Measured values from publication PMC9587990, “Molecular basis for isoform-selective inhibition of presenilin-1 by MRK-560” (Nature Communications, 2022).
“Also recorded” adds a separate entry of the source.

Legend:
[1] = biological target: T1, WT PS1-complex (Homo sapiens, UniProt P49768); assay: in vitro cleavage assay, AICD production by western blot; assay type: biochemical; conditions: 200 nM MRK-560, WT PS1-complex
T1 construct: made in house; host or cells: mammalian cells (HEK293F is stated for the cryo-EM samples)
Procedure: (§1) The PS1- or PS2 complexes were expressed and purified as described. To validate the inhibitory effect of MRK-560 (Fig. 1a), we reconstituted an in vitro cleavage assay using the purified PS1- or PS2 complexes. Production of Aβ40, which is the major cleavage product among the varying lengths of Aβs, and AICD, whose cleavage reflects the endopeptidase activity of γ-secretase, are measured with AlphaLISA and western blots, respectively.
(§2) Release of AICD in the presence of decreasing concentrations of MRK-560 from 10 μM to 2 nM was monitored by western blot with the primary monoclonal antibody against the C-terminal Myc tag. The production of AICD was quantified by ImageJ. Red asterisks indicate the first concentration where the normalized production of AICD was reduced to less than 20%. Each cleavage assay in (b–d) was repeated for three times. Error bars: SD. Source Data is available as a Source Data file.
(§3) All proteins used for the activity assay were sub-cloned, expressed and purified as described. Protein concentration was determined using the Bradford method. […] The cleaved products of these substrates were detected using a monoclonal antibody (1:1000 dilution, CW0299, CWBio) against the C-terminal Myc tag. Aβ40 production was detected using the AlphaLISA assay (PerkinElmer) as described. The IC50 values and the inhibition curves were calculated using Prism 8.0.

[2] = biological target: T2, WT PS2-complex (Homo sapiens, UniProt P49810); assay: as above; assay type: biochemical; conditions: 10 μM MRK-560, WT PS2-complex
T2 construct: made in house; host or cells: mammalian cells (HEK293F is stated for the cryo-EM samples)
Procedure: as §1, §2, §3

[3] = biological target: T3, PS1 TL281-282PI (Homo sapiens, UniProt P49768, L282I/T281P); assay: as above; assay type: biochemical; conditions: 10 μM MRK-560, PS1 TL281-282PI
T3 construct: made in house
Procedure: (§4) Fig. 4 Thr281 and Leu282 of PS1 determine the isoform selectivity of MRK-560. a–c Individual and double residue swapping of Thr281 and Leu282 in PS1 with the corresponding Pro287 and Ile288 in PS2 alter their respective sensitives to MRK-560 accordingly. IC50 values for MRK-560 inhibition of the indicated PS1 (a) and PS2 (b) mutants were measured using the AlphaLISA assay that detects Aβ40 production. Please refer to Methods for experimental details. Data are presented as mean values ± SD. c Production of AICD by residue-swapped PS1 and PS2 mutants. The amount of AICD generated by the indicated variants in the presence of serial diluted MRK-560 is consistent with the corresponding IC50 shown in (a, b). […] The production of AICD was quantified by ImageJ. Red asterisks indicate the first concentration where the normalized production of AICD was reduced to less than 20%. Source data are provided as a Source Data file. Each cleavage assay was repeated three times. Error bars: SD.
(§5) We also examined the inhibitory effect of MRK-560 on the production of AICD by the PS1/PS2 variants (Fig. 4c).
(§6) All proteins used for the activity assay were sub-cloned, expressed and purified as described. Protein concentration was determined using the Bradford method. […] The cleavage reaction was conducted at 37 °C for 4 h. The cleaved products of these substrates were detected using a monoclonal antibody (1:1000 dilution, CW0299, CWBio) against the C-terminal Myc tag. Aβ40 production was detected using the AlphaLISA assay (PerkinElmer) as described. The IC50 values and the inhibition curves were calculated using Prism 8.0.

[4] = biological target: T4, PS1 variant L282I (Homo sapiens, UniProt P49768, L282I); assay: as above; assay type: biochemical; conditions: 1 μM MRK-560, PS1 L282I
T4 construct: made in house
Procedure: as §4, §5, §6

[5] = biological target: T5, PS1 variant T281P (Homo sapiens, UniProt P49768, T281P); assay: as above; assay type: biochemical; conditions: 1 μM MRK-560, PS1 T281P
T5 construct: made in house
Procedure: as §4, §5, §6

[6] = biological target: T6, PS2(PI287-288TL) (Homo sapiens, UniProt P49810, I288L/P287T); assay: as above; assay type: biochemical; conditions: 200 nM MRK-560, PS2(PI287-288TL)
T6 construct: made in house
Procedure: as §4, §5, §6

[7] = tested on: PS2 variants; assay: as above; assay type: biochemical, human; conditions: PS2 variants versus WT PS2
Procedure: as §4, with “Each cleavage assay was repeated three times. Error bars: SD.” left out
as §3

[8] = tested on: PS1 and PS2 with swapped loop-3; assay: as above; assay type: biochemical, human
Procedure: as §4, with “Each cleavage assay was repeated three times. Error bars: SD.” left out
as §3

[9] = tested on: PS1-complex over PS2; conditions: cited from earlier work
[10] = tested on: Notch; set-up: method as in PMID 17099072, PMID 16443723; conditions: wild-type (WT) mouse model; cited from earlier work

Generation of AICD [1]: completely inhibited
Generation of AICD [3]: could not be completely inhibited
Generation of AICD [4]: still detected
Generation of AICD [5]: still detected
Generation of AICD [6]: completely inhibited
SMILES: O=S(=O)(NC1CCC(c2cc(F)ccc2F)(S(=O)(=O)c2ccc(Cl)cc2)CC1)C(F)(F)F (stereo not drawn) [MRK-560, N-[cis-4-[(4-chlorophenyl)sulfonyl]-4-(2,5-difluorophenyl)cyclohexyl]-1,1,1-trifluoromethanesulfonamide]
Generation of AICD [2]: can still be detected; also recorded: could not be completely inhibited
sensitivity of AICD production to MRK-560 [7]: increased sensitivity
effect of swapping loop-3 between PS1 and PS2 on sensitivity to MRK-560 [8]: little influence on inhibition selectivity; also recorded: no detectable effect on the sensitivity
higher suppression of the PS1-complex over PS2 [9]: 37 folds
Notch-related side effect [10]: does not induce Notch-related side effect
